Results from patent US20230146455A1, “TREATMENT OF INFLAMMATORY DISEASES WITH PEPTIDES AND PHARMACEUTICAL COMPOSITIONS” (Yuyu Pharma, Inc., priority 2020, published 2023).
“And” between values parts separate entries of the source, which are not always exact repeats. Identical values can stand only once. “Also recorded” adds a separate entry of the source. Where a SMILES comes first, the peptide text is derived from it. [ ]: non-standard residue; d: D form. Hyp = O=C(O)[C@@H]1C[C@@H](O)CN1

Tested on: human PBMCs
Assay: PBMC cell counts (total, live, viability; trypan blue, Countess) with and without LPS and test articles (Example 9)
Assay type: cell-based
Protocol: Treatment Human PBMCs were pretreated with YY-101, YDE-011 and YDE-043 or reference compound; Xiidra® at various concentration (ranging from 1 nM to 100 uM) for 2 h before stimulation. An equal volume of 0.5% DMSO was used as a vehicle control. Then, the cells were treated with LPS at 5 ug/ml. The supernatants from treated cells were harvested at 24 h and placed in a 96 well for Luminex cytokine & chemokine profiling using a Luminex 200 multiplex assay (Luminex; R&D system, USA).
The main study arm with triplicate wells per group in a 24-well plate: • 1. Blank • 2. PBMC: 0.5% DMSO • 3. PBMC+LPS (5 ug/ml) • 4. PBMC+YY-101 100 uM • 5. PBMC+YY-101 10 uM • 6. PBMC+YY-101 1 uM • 7. PBMC+YY-101 0.1 uM • 8. PBMC+YY-101 0.01 uM • 9. PBMC+LPS (5 ug/ml)+Xiidra®100 uM • 10. PBMC+LPS (5 ug/ml)+Xiidra® 10 uM • 11. PBMC+LPS (5 ug/ml)+Xiidra® 1 uM • 12. PBMC+LPS (5 ug/ml)+Xiidra®0.1 uM • 13. PBMC+LPS (5 ug/ml)+Xiidra®0.01 uM • 14. PBMC+LPS (5 ug/ml)+Xiidra®0.001 uM • 15. PBMC+LPS (5 ug/ml)+YY-101 100 uM • 16. PBMC+LPS (5 ug/ml)+YY-101 10 uM • 17. PBMC+LPS (5 ug/ml)+YY-101 1 uM • 18. PBMC+LPS (5 ug/ml)+YY-101 0.1 uM • 19. PBMC+LPS (5 ug/ml)+YY-101 0.01 uM • 20. PBMC+LPS (5 ug/ml)+YY-101 0.001 uM • 21. PBMC+LPS (5 ug/ml)+YDE-011 100 uM • 22. PBMC+LPS (5 ug/ml)+YDE-011 10 uM • 23. PBMC+LPS (5 ug/ml)+YDE-011 1 uM • 24. PBMC+LPS (5 ug/ml)+YDE-011 0.1 uM • 25. PBMC+LPS (5 ug/ml)+YDE-011 0.01 uM • 26. PBMC+LPS (5 ug/ml)+YDE-011 0.001 uM • 27. PBMC+LPS (5 ug/ml)+YDE-043 100 uM • 28. PBMC+LPS (5 ug/ml)+YDE-043 10 uM • 29. PBMC+LPS (5 ug/ml)+YDE-043 1 uM • 30. PBMC+LPS (5 ug/ml)+YDE-043 0.1 uM • 31. PBMC+LPS (5 ug/ml)+YDE-043 0.01 uM • 32. PBMC+LPS (5 ug/ml)+YDE-043 0.001 uM
The number of PBMCs was measured after 24 hr of treatment. The culture both and trypan blue were diluted 1:1 and 10 ul was added to Countess cell counting chamber (Thermo fisher, USA). The number of PBMCs was measured using a Countess automated cell counter (Thermo fisher, USA).

[1] = PBMC + LPS(5 ug/ml), test article 100 uM, Mean
[2] = PBMC + LPS(5 ug/ml), test article 100 uM, single replicates
[3] = PBMC + compound 0.01 uM, no LPS, 24 hr
[4] = PBMC + compound 0.1 uM, no LPS, 24 hr
[5] = PBMC + compound 1 uM, no LPS, 24 hr
[6] = PBMC + compound 10 uM, no LPS, 24 hr
[7] = PBMC + compound 100 uM, no LPS, 24 hr
[8] = PBMC + test article 0.01 uM, no LPS, Mean
[9] = PBMC + test article 0.01 uM, no LPS, single replicates
[10] = PBMC + test article 0.1 uM, no LPS, Mean
[11] = PBMC + test article 0.1 uM, no LPS, single replicates
[12] = PBMC + test article 1 uM, no LPS, Mean
[13] = PBMC + test article 1 uM, no LPS, single replicates
[14] = PBMC + test article 10 uM, no LPS, Mean
[15] = PBMC + test article 10 uM, no LPS, single replicates
[16] = PBMC + test article 100 uM, no LPS, Mean
[17] = PBMC + test article 100 uM, no LPS, single replicates
[18] = PBMC without LPS, test article 0.01 uM, Mean
[19] = PBMC without LPS, test article 0.01 uM, single replicates
[20] = PBMC without LPS, test article 0.1 uM, Mean
[21] = PBMC without LPS, test article 0.1 uM, single replicates
[22] = PBMC without LPS, test article 1 uM, Mean
[23] = PBMC without LPS, test article 1 uM, single replicates
[24] = PBMC without LPS, test article 10 uM, Mean
[25] = PBMC without LPS, test article 10 uM, single replicates
[26] = PBMC without LPS, test article 100 uM, Mean
[27] = PBMC without LPS, test article 100 uM, single replicates

`CC(C)C[C@H](NC(=O)CNC(=O)[C@H](CC(=O)O)NC(=O)[C@H](CCC(N)=O)NC(=O)CNC(=O)[C@@H]1C[C@@H](O)CN1)C(=O)N[C@@H](C)C(=O)NCC(=O)N1CCC[C@H]1C(=O)N[C@@H](CCCCN)C(=O)O` [YY-101] (H-[Hyp]GQDGLAGPK-OH; N-terminus and C-terminus assumed) was tested, and the Live cell [1] was 5.8 10^5/ml, the Total cell count [1] was 7.8 10^5/ml and the Live cell [2] was 6.3 10^5/ml and 6.2 10^5/ml and 5.0 10^5/ml. For the same compound, the Total cell count [2] was 8.7 10^5/ml and 8.8 10^5/ml and 5.8 10^5/ml, the Viability [2] was 73.0% and 70.0% and 87.0% and the Live cell [3] was 5.0 ± 0.2 10^5/ml. For the same compound, the Total cell [3] was 5.9 ± 0.4 10^5/ml, the Live cell [4] was 5.1 ± 0.2 10^5/ml and the Total cell [4] was 6.1 ± 0.8 10^5/ml. The Live cell [5] was 5.5 ± 0.0 10^5/ml, the Total cell [5] was 6.1 ± 0.2 10^5/ml and the Live cell [6] was 6.3 ± 0.2 10^5/ml. The Total cell [6] was 7.4 ± 0.3 10^5/ml, the Live cell [7] was 6.7 ± 0.3 10^5/ml and the Total cell [7] was 7.8 ± 0.5 10^5/ml. For the same compound, the Live cell [8] was 5.0 10^5/ml, the “Live cell (10^5/ml)” value [8] was 5.0 10^5/ml and the “Live cell, Mean” value [8] was 5.0 10^5/ml. For the same compound, the Live cell (PBMC + test article 0.01 uM, no LPS, individual replicates (1st, 2nd)) was 5.2 10^5/ml and 4.8 10^5/ml, the Live cell [9] was 5.2 10^5/ml and 4.8 10^5/ml and the “Live cell (10^5/ml)” value [9] was 5.2 10^5/ml and 4.8 10^5/ml. The Live cell (PBMC + test article 0.01 uM, no LPS, single replicates (1st, 2nd)) was 5.2 10^5/ml and 4.8 10^5/ml, the Live cell [10] was 5.1 10^5/ml and the “Live cell (10^5/ml)” value [10] was 5.1 10^5/ml. The “Live cell, Mean” value [10] was 5.1 10^5/ml, the Live cell (PBMC + test article 0.1 uM, no LPS, individual replicates (1st, 2nd)) was 4.4 10^5/ml and 5.8 10^5/ml and the Live cell [11] was 4.4 10^5/ml and 5.8 10^5/ml. The “Live cell (10^5/ml)” value [11] was 4.4 10^5/ml and 5.8 10^5/ml, the Live cell (PBMC + test article 0.1 uM, no LPS, single replicates (1st, 2nd)) was 4.4 10^5/ml and 5.8 10^5/ml and the Live cell [12] was 5.5 10^5/ml. The “Live cell (10^5/ml)” value [12] was 5.5 10^5/ml, the “Live cell, Mean” value [12] was 5.5 10^5/ml and the Live cell (PBMC + test article 1 uM, no LPS, individual replicates (1st, 2nd)) was 5.5 10^5/ml. For the same compound, the Live cell [13] was 5.5 10^5/ml, the “Live cell (10^5/ml)” value [13] was 5.5 10^5/ml and the Live cell (PBMC + test article 1 uM, no LPS, single replicates (1st, 2nd)) was 5.5 10^5/ml. For the same compound, the Live cell [14] was 6.3 10^5/ml, the “Live cell (10^5/ml)” value [14] was 6.3 10^5/ml and the “Live cell, Mean” value [14] was 6.3 10^5/ml. For the same compound, the Live cell (PBMC + test article 10 uM, no LPS, individual replicates (1st, 2nd)) was 6.4 10^5/ml and 6.1 10^5/ml, the Live cell [15] was 6.4 10^5/ml and 6.1 10^5/ml and the “Live cell (10^5/ml)” value [15] was 6.4 10^5/ml and 6.1 10^5/ml. The Live cell (PBMC + test article 10 uM, no LPS, single replicates (1st, 2nd)) was 6.4 10^5/ml and 6.1 10^5/ml, the Live cell [16] was 6.7 10^5/ml and the “Live cell (10^5/ml)” value [16] was 6.7 10^5/ml. The “Live cell, Mean” value [16] was 6.7 10^5/ml, the Live cell (PBMC + test article 100 uM, no LPS, individual replicates (1st, 2nd)) was 6.4 10^5/ml and 7.0 10^5/ml and the Live cell [17] was 6.4 10^5/ml and 7.0 10^5/ml. For the same compound, the “Live cell (10^5/ml)” value [17] was 6.4 10^5/ml and 7.0 10^5/ml, the Live cell (PBMC + test article 100 uM, no LPS, single replicates (1st, 2nd)) was 6.4 10^5/ml and 7.0 10^5/ml and the Live cell (PBMC without LPS, 0.01 uM, Mean) was 5.0 10^5/ml. For the same compound, the Live cell (PBMC without LPS, 0.01 uM, single replicates) was 5.2 10^5/ml and 4.8 10^5/ml, the Live cell (PBMC without LPS, 0.1 uM, Mean) was 5.1 10^5/ml and the Live cell (PBMC without LPS, 0.1 uM, single replicates) was 4.4 10^5/ml and 5.8 10^5/ml. The Live cell (PBMC without LPS, 1 uM, Mean) was 5.5 10^5/ml, the Live cell (PBMC without LPS, 1 uM, single replicates) was 5.5 10^5/ml and the Live cell (PBMC without LPS, 10 uM, Mean) was 6.3 10^5/ml. The Live cell (PBMC without LPS, 10 uM, single replicates) was 6.4 10^5/ml and 6.1 10^5/ml, the Live cell (PBMC without LPS, 100 uM, Mean) was 6.7 10^5/ml and the Live cell (PBMC without LPS, 100 uM, single replicates) was 6.4 10^5/ml and 7.0 10^5/ml. The Live cell [18] was 5.0 10^5/ml, the Total cell count [18] was 5.9 10^5/ml and the Live cell [19] was 5.2 10^5/ml and 4.8 10^5/ml. The Total cell count [19] was 6.3 10^5/ml and 5.5 10^5/ml, the Viability [19] was 83.0% and 87.0% and the Live cell [20] was 5.1 10^5/ml. The Total cell count [20] was 6.1 10^5/ml, the Viability [20] was 84.0% and the Live cell [21] was 4.4 10^5/ml and 5.8 10^5/ml. The Total cell count [21] was 5.2 10^5/ml and 6.9 10^5/ml, the Viability [21] was 84.0% and the Live cell [22] was 5.5 10^5/ml. For the same compound, the Total cell count [22] was 6.1 10^5/ml, the Live cell [23] was 5.5 10^5/ml and the Total cell count [23] was 5.9 10^5/ml and 6.3 10^5/ml. The Viability [23] was 92.0% and 87.0%, the Live cell [24] was 6.3 10^5/ml and the Total cell count [24] was 7.4 10^5/ml. The Live cell [25] was 6.4 10^5/ml and 6.1 10^5/ml, the Total cell count [25] was 7.6 10^5/ml and 7.1 10^5/ml and the Viability [25] was 85.0% and 87.0%. For the same compound, the Live cell [26] was 6.7 10^5/ml, the Total cell count [26] was 7.8 10^5/ml and the Live cell [27] was 6.4 10^5/ml and 7.0 10^5/ml. The Total cell count [27] was 7.3 10^5/ml and 8.2 10^5/ml, the Viability [27] was 88.0% and 85.0% and the “viability / total number of PBMCs (in words)” value (up to 100 μM) was “didn't affect the basal levels of most of cytokine/chemokine production or the viability of hPBMCs; also recorded: didn't affect any viability or the total number of PBMCs”. For the same compound, the “which treatments consistently affected the total and live number of PBMCs or the percent viability (in words)” value (up to 100 μM, 24-hour treatment) was “none of”.
